According to ChEMBL document CHEMBL3046329, “Sensitivity to silthiofam, tebuconazole and difenoconazole of Gaeumannomyces graminis var. tritici isolates from China” (Pest Manag Sci, 2012):
≈ marks a conversion by molar mass, not a printed value.

Assays:
Format in all cases: functional, organism-based
Gaeumannomyces tritici [1] = assay: Antifungal activity against sithiofam-resistant Gaeumannomyces graminis var. tritici isolate HN20 expressing C1 genetic cluster assessed as reduction in fungal colony diameter after 4 days; conditions: isolate HN20, 96 h
Gaeumannomyces tritici [2] = assay: Antifungal activity against sithiofam-sensitive Gaeumannomyces graminis var. tritici isolate JS08 expressing C2 genetic cluster assessed as reduction in fungal colony diameter after 4 days; conditions: isolate JS08, 96 h
Gaeumannomyces tritici [3] = assay: Antifungal activity against sithiofam-sensitive Gaeumannomyces graminis var. tritici isolate AH04 expressing C2 genetic cluster assessed as reduction in fungal colony diameter after 4 days; conditions: isolate AH04, 96 h
Gaeumannomyces tritici [4] = assay: Antifungal activity against sithiofam-resistant Gaeumannomyces graminis var. tritici isolate HN03 expressing C1 genetic cluster assessed as reduction in fungal colony diameter after 4 days; conditions: isolate HN03, 96 h
Gaeumannomyces tritici [5] = assay: Antifungal activity against sithiofam-resistant Gaeumannomyces graminis var. tritici isolate HN01 expressing C1 genetic cluster assessed as reduction in fungal colony diameter after 4 days; conditions: isolate HN01, 96 h
Gaeumannomyces tritici [6] = assay: Antifungal activity against sithiofam-resistant Gaeumannomyces graminis var. tritici isolate JS09 expressing C1 genetic cluster assessed as reduction in fungal colony diameter after 4 days; conditions: isolate JS09, 96 h
Gaeumannomyces tritici [7] = assay: Antifungal activity against sithiofam-resistant Gaeumannomyces graminis var. tritici isolate HN10 expressing C1 genetic cluster assessed as reduction in fungal colony diameter after 4 days; conditions: isolate HN10, 96 h
Gaeumannomyces tritici [8] = assay: Antifungal activity against sithiofam-sensitive Gaeumannomyces graminis var. tritici isolate JS03 expressing C1 genetic cluster assessed as reduction in fungal colony diameter after 4 days; conditions: isolate JS03, 96 h
Gaeumannomyces tritici [9] = assay: Antifungal activity against sithiofam-sensitive Gaeumannomyces graminis var. tritici isolate HN11 expressing C2 genetic cluster assessed as reduction in fungal colony diameter after 4 days; conditions: isolate HN11, HN11, 96 h
Gaeumannomyces tritici [10] = assay: Antifungal activity against sithiofam-resistant Gaeumannomyces graminis var. tritici isolate AH06 expressing C1 genetic cluster assessed as reduction in fungal colony diameter after 4 days; conditions: isolate AH06, 96 h
Gaeumannomyces tritici [11] = assay: Antifungal activity against sithiofam-resistant Gaeumannomyces graminis var. tritici isolate JS07 expressing C1 genetic cluster assessed as reduction in fungal colony diameter after 4 days; conditions: isolate JS07, 96 h
Gaeumannomyces tritici [12] = assay: Antifungal activity against sithiofam-sensitive Gaeumannomyces graminis var. tritici isolate HN28 expressing C2 genetic cluster assessed as reduction in fungal colony diameter after 4 days; conditions: isolate HN28, 96 h
Gaeumannomyces tritici [13] = assay: Antifungal activity against sithiofam-resistant Gaeumannomyces graminis var. tritici isolate HN12 expressing C1 genetic cluster assessed as reduction in fungal colony diameter after 4 days; conditions: isolate HN12, HN12, 96 h
Gaeumannomyces tritici [14] = assay: Antifungal activity against sithiofam-resistant Gaeumannomyces graminis var. tritici isolate AH02 expressing C1 genetic cluster assessed as reduction in fungal colony diameter after 4 days; conditions: isolate AH02, 96 h
Gaeumannomyces tritici [15] = assay: Antifungal activity against sithiofam-resistant Gaeumannomyces graminis var. tritici isolate HN04 expressing C1 genetic cluster assessed as reduction in fungal colony diameter after 4 days; conditions: isolate HN04, 96 h
Gaeumannomyces tritici [16] = assay: Antifungal activity against sithiofam-resistant Gaeumannomyces graminis var. tritici isolate JS04 expressing C1 genetic cluster assessed as reduction in fungal colony diameter after 4 days; conditions: isolate JS04, 96 h
Gaeumannomyces tritici [17] = assay: Antifungal activity against sithiofam-sensitive Gaeumannomyces graminis var. tritici isolate AH11 expressing C2 genetic cluster assessed as reduction in fungal colony diameter after 4 days; conditions: isolate AH11, 96 h
Gaeumannomyces tritici [18] = assay: Antifungal activity against sithiofam-sensitive Gaeumannomyces graminis var. tritici isolate HN30 expressing C2 genetic cluster assessed as reduction in fungal colony diameter after 4 days; conditions: isolate HN30, 96 h
Gaeumannomyces tritici [19] = assay: Antifungal activity against sithiofam-sensitive Gaeumannomyces graminis var. tritici isolate HN21 expressing C2 genetic cluster assessed as reduction in fungal colony diameter after 4 days; conditions: isolate HN21, 96 h
Gaeumannomyces tritici [20] = assay: Antifungal activity against sithiofam-resistant Gaeumannomyces graminis var. tritici isolate HN09 expressing C1 genetic cluster assessed as reduction in fungal colony diameter after 4 days; conditions: isolate HN09, 96 h
Gaeumannomyces tritici [21] = assay: Antifungal activity against sithiofam-resistant Gaeumannomyces graminis var. tritici isolate HN27 expressing […] genetic cluster assessed as reduction in fungal colony diameter after 4 days; conditions: isolate HN27, 96 h
Gaeumannomyces tritici [22] = assay: Antifungal activity against sithiofam-resistant Gaeumannomyces graminis var. tritici isolate AH14 expressing C1 genetic cluster assessed as reduction in fungal colony diameter after 4 days; conditions: isolate AH14, 96 h
Gaeumannomyces tritici [23] = assay: Antifungal activity against sithiofam-resistant Gaeumannomyces graminis var. tritici isolate HN16 expressing C1 genetic cluster assessed as reduction in fungal colony diameter after 4 days; conditions: isolate HN16, 96 h
Gaeumannomyces tritici [24] = assay: Antifungal activity against sithiofam-resistant Gaeumannomyces graminis var. tritici isolate JS11 expressing C1 genetic cluster assessed as reduction in fungal colony diameter after 4 days; conditions: isolate JS11, 96 h
Gaeumannomyces tritici [25] = assay: Antifungal activity against sithiofam-sensitive Gaeumannomyces graminis var. tritici isolate AH16 expressing C2 genetic cluster assessed as reduction in fungal colony diameter after 4 days; conditions: isolate AH16, 96 h
Gaeumannomyces tritici [26] = assay: Antifungal activity against sithiofam-resistant Gaeumannomyces graminis var. tritici isolate AH13 expressing C1 genetic cluster assessed as reduction in fungal colony diameter after 4 days; conditions: isolate AH13, 96 h
Gaeumannomyces tritici [27] = assay: Antifungal activity against sithiofam-sensitive Gaeumannomyces graminis var. tritici isolate AH05 expressing C2 genetic cluster assessed as reduction in fungal colony diameter after 4 days; conditions: isolate AH05, 96 h
Gaeumannomyces tritici [28] = assay: Antifungal activity against sithiofam-sensitive Gaeumannomyces graminis var. tritici isolate HN26 expressing C2 genetic cluster assessed as reduction in fungal colony diameter after 4 days; conditions: isolate HN26, 96 h
Gaeumannomyces tritici [29] = assay: Antifungal activity against sithiofam-sensitive Gaeumannomyces graminis var. tritici isolate AH15 expressing C2 genetic cluster assessed as reduction in fungal colony diameter after 4 days; conditions: isolate AH15, 96 h
Gaeumannomyces tritici [30] = assay: Antifungal activity against sithiofam-resistant Gaeumannomyces graminis var. tritici isolate HN08 expressing C1 genetic cluster assessed as reduction in fungal colony diameter after 4 days; conditions: isolate HN08, 96 h
Gaeumannomyces tritici [31] = assay: Antifungal activity against sithiofam-resistant Gaeumannomyces graminis var. tritici isolate HN05 expressing C1 genetic cluster assessed as reduction in fungal colony diameter after 4 days; conditions: isolate HN05, 96 h
Gaeumannomyces tritici [32] = assay: Antifungal activity against sithiofam-resistant Gaeumannomyces graminis var. tritici isolate HN13 expressing C1 genetic cluster assessed as reduction in fungal colony diameter after 4 days; conditions: isolate HN13, 96 h
Gaeumannomyces tritici [33] = assay: Antifungal activity against sithiofam-sensitive Gaeumannomyces graminis var. tritici isolate JS02 expressing C1 genetic cluster assessed as reduction in fungal colony diameter after 4 days; conditions: isolate JS02, 96 h
Gaeumannomyces tritici [34] = assay: Antifungal activity against sithiofam-resistant Gaeumannomyces graminis var. tritici isolate AH10 expressing C1 genetic cluster assessed as reduction in fungal colony diameter after 4 days; conditions: isolate AH10, 96 h
Gaeumannomyces tritici [35] = assay: Antifungal activity against sithiofam-sensitive Gaeumannomyces graminis var. tritici isolate SD06 expressing C2 genetic cluster assessed as reduction in fungal colony diameter after 4 days; conditions: isolate SD06, 96 h
Gaeumannomyces tritici [36] = assay: Antifungal activity against sithiofam-sensitive Gaeumannomyces graminis var. tritici isolate AH09 expressing C2 genetic cluster assessed as reduction in fungal colony diameter after 4 days; conditions: isolate AH09, 96 h
Gaeumannomyces tritici [37] = assay: Antifungal activity against sithiofam-sensitive Gaeumannomyces graminis var. tritici isolate SD02 expressing C2 genetic cluster assessed as reduction in fungal colony diameter after 4 days; conditions: isolate SD02, 96 h

## C=CCNC(=O)c1c([Si](C)(C)C)sc(C)c1C [SILTHIOFAM]
Gaeumannomyces tritici [1]
  EC50: 24.8 µg/mL (≈ 92.7 µM)
Gaeumannomyces tritici [2]
  EC50: 0.0002 µg/mL (≈ 0.000748 µM)
Gaeumannomyces tritici [3]
  EC50: 0.0012 µg/mL (≈ 0.00449 µM)
Gaeumannomyces tritici [4]
  EC50: 30 µg/mL (≈ 112 µM)
Gaeumannomyces tritici [5]
  EC50: 82.7 µg/mL (≈ 309 µM)
Gaeumannomyces tritici [6]
  EC50: 34.2 µg/mL (≈ 128 µM)
Gaeumannomyces tritici [7]
  EC50: 30.2 µg/mL (≈ 113 µM)
Gaeumannomyces tritici [8]
  EC50: 0.0016 µg/mL (≈ 0.00598 µM)
Gaeumannomyces tritici [9]
  EC50: 0.0007 µg/mL (≈ 0.00262 µM)
Gaeumannomyces tritici [10]
  EC50: 29.1 µg/mL (≈ 109 µM)
Gaeumannomyces tritici [11]
  EC50: 24.7 µg/mL (≈ 92.2 µM)
Gaeumannomyces tritici [12]
  EC50: 0.0005 µg/mL (≈ 0.00187 µM)
Gaeumannomyces tritici [13]
  EC50: 53 µg/mL (≈ 198 µM)
Gaeumannomyces tritici [14]
  EC50: 51.8 µg/mL (≈ 194 µM)
Gaeumannomyces tritici [15]
  EC50: 31.9 µg/mL (≈ 119 µM)
Gaeumannomyces tritici [16]
  EC50: 30.3 µg/mL (≈ 113 µM)
Gaeumannomyces tritici [17]
  EC50: 0.0004 µg/mL (≈ 0.0015 µM)
Gaeumannomyces tritici [18]
  EC50: 0.0014 µg/mL (≈ 0.00523 µM)
Gaeumannomyces tritici [19]
  EC50: 0.0005 µg/mL (≈ 0.00187 µM)
Gaeumannomyces tritici [20]
  EC50: 106 µg/mL (≈ 398 µM)
Gaeumannomyces tritici [21]
  EC50: 121 µg/mL (≈ 451 µM)
Gaeumannomyces tritici [22]
  EC50: 39.9 µg/mL (≈ 149 µM)
Gaeumannomyces tritici [23]
  EC50: 28.6 µg/mL (≈ 107 µM)
Gaeumannomyces tritici [24]
  EC50: 46.8 µg/mL (≈ 175 µM)
Gaeumannomyces tritici [25]
  EC50: 0.0003 µg/mL (≈ 0.00112 µM)
Gaeumannomyces tritici [26]
  EC50: 70.2 µg/mL (≈ 263 µM)
Gaeumannomyces tritici [27]
  EC50: 0.0013 µg/mL (≈ 0.00486 µM)
Gaeumannomyces tritici [28]
  EC50: 0.0018 µg/mL (≈ 0.00673 µM)
Gaeumannomyces tritici [29]
  EC50: 0.0005 µg/mL (≈ 0.00187 µM)
Gaeumannomyces tritici [30]
  EC50: 62.4 µg/mL (≈ 233 µM)
Gaeumannomyces tritici [31]
  EC50: 23.8 µg/mL (≈ 89.1 µM)
Gaeumannomyces tritici [32]
  EC50: 51.8 µg/mL (≈ 194 µM)
Gaeumannomyces tritici [33]
  EC50: 0.0013 µg/mL (≈ 0.00486 µM)
Gaeumannomyces tritici [34]
  EC50: 57.6 µg/mL (≈ 215 µM)
Gaeumannomyces tritici [35]
  EC50: 0.0012 µg/mL (≈ 0.00449 µM)
Gaeumannomyces tritici [36]
  EC50: 0.0003 µg/mL (≈ 0.00112 µM)
Gaeumannomyces tritici [37]
  EC50: 0.0036 µg/mL (≈ 0.0135 µM)

## CC(C)(C)C(O)(CCc1ccc(Cl)cc1)Cn1cncn1 (centres undefined) [TEBUCONAZOLE]
Gaeumannomyces tritici [1]
  EC50: 0.104 µg/mL (≈ 0.338 µM)
Gaeumannomyces tritici [2]
  EC50: 0.051 µg/mL (≈ 0.166 µM)
Gaeumannomyces tritici [3]
  EC50: 0.231 µg/mL (≈ 0.752 µM)
Gaeumannomyces tritici [4]
  EC50: 0.0724 µg/mL (≈ 0.235 µM)
Gaeumannomyces tritici [5]
  EC50: 0.0198 µg/mL (≈ 0.0643 µM)
Gaeumannomyces tritici [6]
  EC50: 0.0298 µg/mL (≈ 0.0968 µM)
Gaeumannomyces tritici [7]
  EC50: 0.0691 µg/mL (≈ 0.224 µM)
Gaeumannomyces tritici [8]
  EC50: 0.0742 µg/mL (≈ 0.241 µM)
Gaeumannomyces tritici [9]
  EC50: 0.0562 µg/mL (≈ 0.183 µM)
Gaeumannomyces tritici [10]
  EC50: 0.0283 µg/mL (≈ 0.0919 µM)
Gaeumannomyces tritici [11]
  EC50: 0.0584 µg/mL (≈ 0.19 µM)
Gaeumannomyces tritici [12]
  EC50: 0.18 µg/mL (≈ 0.584 µM)
Gaeumannomyces tritici [13]
  EC50: 0.076 µg/mL (≈ 0.247 µM)
Gaeumannomyces tritici [14]
  EC50: 0.0999 µg/mL (≈ 0.325 µM)
Gaeumannomyces tritici [15]
  EC50: 0.056 µg/mL (≈ 0.182 µM)
Gaeumannomyces tritici [16]
  EC50: 0.201 µg/mL (≈ 0.652 µM)
Gaeumannomyces tritici [17]
  EC50: 0.0395 µg/mL (≈ 0.128 µM)
Gaeumannomyces tritici [18]
  EC50: 0.123 µg/mL (≈ 0.401 µM)
Gaeumannomyces tritici [19]
  EC50: 0.0609 µg/mL (≈ 0.198 µM)
Gaeumannomyces tritici [20]
  EC50: 0.0415 µg/mL (≈ 0.135 µM)
Gaeumannomyces tritici [21]
  EC50: 0.0536 µg/mL (≈ 0.174 µM)
Gaeumannomyces tritici [22]
  EC50: 0.0265 µg/mL (≈ 0.0861 µM)
Gaeumannomyces tritici [23]
  EC50: 0.0599 µg/mL (≈ 0.195 µM)
Gaeumannomyces tritici [24]
  EC50: 0.0437 µg/mL (≈ 0.142 µM)
Gaeumannomyces tritici [25]
  EC50: 0.0965 µg/mL (≈ 0.313 µM)
Gaeumannomyces tritici [26]
  EC50: 0.302 µg/mL (≈ 0.981 µM)
Gaeumannomyces tritici [27]
  EC50: 0.0902 µg/mL (≈ 0.293 µM)
Gaeumannomyces tritici [28]
  EC50: 0.0722 µg/mL (≈ 0.235 µM)
Gaeumannomyces tritici [29]
  EC50: 0.0263 µg/mL (≈ 0.0854 µM)
Gaeumannomyces tritici [30]
  EC50: 0.057 µg/mL (≈ 0.185 µM)
Gaeumannomyces tritici [31]
  EC50: 0.0498 µg/mL (≈ 0.162 µM)
Gaeumannomyces tritici [32]
  EC50: 0.0689 µg/mL (≈ 0.224 µM)
Gaeumannomyces tritici [33]
  EC50: 0.0547 µg/mL (≈ 0.178 µM)
Gaeumannomyces tritici [34]
  EC50: 0.112 µg/mL (≈ 0.363 µM)
Gaeumannomyces tritici [35]
  EC50: 0.0646 µg/mL (≈ 0.21 µM)
Gaeumannomyces tritici [36]
  EC50: 0.0952 µg/mL (≈ 0.309 µM)
Gaeumannomyces tritici [37]
  EC50: 0.0575 µg/mL (≈ 0.187 µM)
